Where two headings read alike, the source gives them in different places.
Tests used:
[1] = tested on: CD37-positive human chronic lymphocytic leukemia cell line JVM-13; test: Cell growth inhibition by combination with BTK inhibitors (Celltiter-Glo 2.0); type: cell-based; conditions: JVM13, 144 h, read-out: D2 (50% cell growth inhibition concentration, BTK inhibitor alone)
Procedure: (§1) During the culture period, the cells were cultured under conditions of 37°C and 5% CO2 in all the cases. The cells thus cultured for 6 days were reacted using Celltiter-Glo 2.0 Cell Viability Assay (Promega Corp,) in accordance with the attached manual, followed by the measurement of the amount of luminescence from each well using a plate reader (Envision 2105 XCite multimode plate reader, PerkinElmer, Inc.). […] Cell growth inhibition rate (%) = (T/C) × 100 [formula]
(§2) From the calculated 50% cell growth inhibition concentrations (anti-CD37 antibody-drug conjugate (1) alone: D1, each BTK inhibitor alone: D2, anti-CD37 antibody-drug conjugate (1) in the combination: d1, each BTK inhibitor drug in the combination: d2), a combination index (CI) was calculated according to the following formula, and assessed as a synergistic effect with CI < 1, an additive effect with CI = 1, and an antagonizing effect with CI > 1 (see Adv. Enzyme Regul. 1984, P. 2227-55) . CI = (d1/D1) + (d2/D2) [formula]

[2] = tested on: CD37-positive human chronic lymphocytic leukemia cell line JVM-3; test: as above; type: cell-based; conditions: read-out: D2 (50% cell growth inhibition concentration, BTK inhibitor alone)
Procedure: as §1, §2

[3] = tested on: CD37-positive human chronic lymphocytic leukemia cell line JVM-2; test: as above; type: cell-based; conditions: read-out: D2 (50% cell growth inhibition concentration, BTK inhibitor alone)
Procedure: as §1, §2

[4] = tested on: CD37-positive human chronic lymphocytic leukemia cell line JVM-13; test: Antitumor effect - (4): JVM-13 subcutaneous xenograft; conditions: JVM-13 xenograft; for TGI (%): Day 35, grouping Day 14, ADC (1) 0.3 mg/kg i.v. once, rituximab 10 mg/kg i.v. once, bendamustine 12.5 mg/kg i.p. day of grouping and next day, venetoclax 100 mg/kg oral every day, ibrutinib 200 mg/kg oral every day; for CR (%) on final day of observation / Change from baseline (%): ADC (1) 0.3 mg/kg i.v., rituximab 10 mg/kg i.v., bendamustine 12.5 mg/kg i.p. x2, venetoclax 100 mg/kg oral daily, ibrutinib 200 mg/kg oral daily; for Change from baseline (%): tumor volume on Day 35 vs Day 14 baseline

Compound | IC50 ([1]; JVM-13, 6 days culture) [µM] | IC50 ([2]; 144 h, JVM-3, 6 days culture) [µM] | IC50 ([3]; 144 h, JVM-2, 6 days culture) [µM] | TGI (%) [4] [%] | CR (%) on final day of observation [4] [%] | Change from baseline (%) [4] [%] | IC50 [1] [µM] | IC50 ([2]; JVM-3, 144 h) [µM] | IC50 ([3]; JVM-2, 144 h) [µM]
CC#CC(=O)N1CCC[C@H]1c1nc(-c2ccc(C(=O)Nc3ccccn3)cc2)c2c(N)nccn12 [Acalabrutinib, acalabrutinib] | 7.15 | 16.6 | 25.8 | – | – | – | – | – | –
C=CC(=O)N1CCC[C@@H](n2nc(-c3ccc(Oc4ccccc4)cc3)c3c(N)ncnc32)C1 [Ibrutinib, ibrutinib] | – | – | – | -12 | 0 | 776.7 | 0.58 | 0.27 | 1.19
CC1(C)CCC(CN2CCN(c3ccc(C(=O)NS(=O)(=O)c4ccc(NCC5CCOCC5)c([N+](=O)[O-])c4)c(Oc4cnc5[nH]ccc5c4)c3)CC2)=C(c2ccc(Cl)cc2)C1 [Venetoclax, venetoclax] | – | – | – | 25 | 0 | 490.9 | – | – | –
C=CC(=O)N1CCC([C@@H]2CCNc3c(C(N)=O)c(-c4ccc(Oc5ccccc5)cc4)nn32)CC1 [Zanubrutinib, zanubrutinib] | 2.83 | 17.9 | 6.86 | – | – | – | – | – | –
